Source: PMC3199286 (ACS chemical biology, 2011)

Columns and labels:
[1] = system: PRMT1; settings: ref [15]–[17]; cited from earlier work
[2] = molecular target: T1, PRMT1 (Homo sapiens, UniProt Q99873); test: Active PRMT1 in MCF-7 nuclear extracts after estrogen stimulation; type: cell-based; settings: 10 nM E2, 5 minute time point
[3] = molecular target: T1, PRMT1; test: Active PRMT1 in MCF-7 cytoplasmic extracts after estrogen stimulation; type: cell-based

T1 sequence (Q99873 whole entry): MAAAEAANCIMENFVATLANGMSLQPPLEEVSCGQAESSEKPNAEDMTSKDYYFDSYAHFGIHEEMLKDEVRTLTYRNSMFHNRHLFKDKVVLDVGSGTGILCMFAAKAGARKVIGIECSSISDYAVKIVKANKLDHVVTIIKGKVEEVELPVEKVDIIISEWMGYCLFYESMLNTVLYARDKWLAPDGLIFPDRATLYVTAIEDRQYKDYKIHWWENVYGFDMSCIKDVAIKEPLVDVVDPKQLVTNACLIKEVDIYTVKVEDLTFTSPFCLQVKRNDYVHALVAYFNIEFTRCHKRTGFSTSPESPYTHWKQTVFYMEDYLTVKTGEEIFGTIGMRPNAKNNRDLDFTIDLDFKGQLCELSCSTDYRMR

Substance	PRMT1 substrate quality [1]	maximum reduction of active PRMT1 in nucleus [2] [fold]	increase of active PRMT1 in cytoplasm ([3]; 10 nM E2, 5 minutes after addition, MCF-7) [fold]	time of maximum active PRMT1 in cytoplasm ([3]; 10 nM E2, MCF-7) [min]	time of return of active cytoplasmic PRMT1 to basal levels ([3]; 10 nM E2, MCF-7)	total PRMT1 levels in cytosolic and nuclear extracts (loading control) after estrogen ([3]; 10 nM E2, MCF-7, 10% loading control, Figure 6A lower panel)
AcH4-21: peptide which consists of the first 21 amino acids of histone H4, highly efficient PRMT1 substrate	highly efficient PRMT1 substrate	–	–	–	–	–
estrogen	–	3	2.5	10	~ 15 minutes	remain constant
